# Tested on: Plasmodium vinckei petteri (strain 279 BY)
# Test: In vivo measurement of the antimalarial activity in mice infected with Plasmodium vinckei petteri (4-day ip treatment)
# Set-up: species or system Plasmodium vinckei petteri in female Swiss mice
# Excerpt: • ED50=dose in mg/kg/day which brings about a 50% decrease in parasitaemia, observed in the infected mice, • ED90=dose in mg/kg/day which brings about a 90% decrease in parasitaemia, observed in the infected mice, • ip=intraperitoneal administration, • iv=intravenous administration, • ir=intrarectal administration.
# On day 0 (D0), female “Swiss” mice (OF1, 22-26 g) (Charles River Laboratories France, 59 rue de la Paix, 76410 Saint-Aubin-les-Elbeuf) are inoculated, by iv injection in the caudal vein, with 10^8 parasitized erythrocytes suspended in 200 μl of NaCl (0.9%). The parasites used are of Plasmodium vinckei petteri type (strain 279 BY, supplied by Dr. I Landau, Paris, France).
# The injection of 10^8 parasitized erythrocytes results, at day 1 (D1), in a parasitemia level of between 5% and 10% (7.2%±0.2%). The Plasmodium vinckei petteri strain is maintained by weekly infection in mice with 10^7 to 10^8 parasitized erythrocytes suspended in a saline phosphate buffer (0.9%) (infection by intraperitoneal administration).
# The products are dissolved in a 0.3M phosphate buffer (pH=8.1). The final concentration of the T3 solution is between 40 and 200 mg/l depending on the dose. The final concentration of the artesunate solution is between 100 and 500 mg/l depending on the dose. The products are administered ip. The administration volume is of the order of 100 μl, but depends on the weight of the mouse.
# The mice are treated once a day for 4 days, on days D1, D2, D3 and D4 (Peters, W., J. H. Portus, and B. L. Robinson. 1975. The chemotherapy of rodent malaria. XXII. The value of drug-resistant strains of P. berghei in screening for blood schizonticidal activity. Ann. Trop. Med. Parasitol. 69:155-171; and: Ancelin M L, Calas M., Bonhoure A., Herbute S, and Vial H., In vivo antimalarial activity of mono and bis quaternary ammonium salts interfering with Plasmodium phospholipid metabolism. Antimicrob. Agents Chemother., 2003, 47, 2598-2605). Four mice are used per dose.
# The animal is given, by ip administration, according to the case, T3, artesunate or the mixture of the two active ingredients solubilized.
# At the 5th day, a few drops of blood are taken from the tail of the mouse in order to determine the parasitemia by FACS (fluorescence-activated cell sorter) and to perform a blood smear. The parasitemia is first determined by FACS on 20 000 cells. The red blood cells taken for the FACS are fixed with glutaraldehyde and then labeled with a fluorochrome (YOYO1®) which labels DNA and therefore only the parasitized cells (Barkan, D., Ginsburg, H., and Golenser, J. 2000. Optimisation of flow cytometric measurement of parasitaemia in plasmodium-infected mice. Int. J. Parasitol. 30: 649-653). The parasitemias below 15% are subsequently recounted on smears. The smears are fixed with methanol and then stained with Giemsa stain. The number of parasitized blood cells is counted under a microscope. The parasitemia is expressed as percentage of infected erythrocytes present in the specimen, on a sample of 2000 cells. The ED50 and ED90 values are determined at D5. The parasitemia is determined from the 1st to the 10th day of treatment, and then at the 15th, 22nd and 47th days.
# The curative dose is the dose of product which ensures the survival of the entire treated batch of animals after one month.
# 0% inhibition corresponds to the mean of the parasitemias observed in the nontreated, infected mice. 100% inhibition corresponds to a very weak or null parasitemia, below 0.01%. The ED50 values are determined by linear interpolation of the dose-response curve represented in logarithm of concentrations.
structure (smiles),measurement,setting,value
"C[C@H]1[C@H](OC(=O)CCC(=O)O)O[C@@H]2O[C@@]3(C)CC[C@H]4[C@H](C)CC[C@@H]1[C@@]24OO3 [artesunate, reference compound]",parasitaemia D5,"Artesunate 2.5 mg/kg/d alone, ip D1-D4, D5",53.20%
same,parasitaemia D1,"Artesunate 2.5 mg/kg/d alone, ip, D1 (first treatment day)",7.00%
same,parasitaemia D2,"Artesunate 2.5 mg/kg/d alone, ip, D2 (24 h after first administration)",32.90%
same,activity on the parasitemia at 4 days,artesunate 0.5 mg/kg/d,completely inactive
same,complete recovery after one month,artesunate alone 2.5 mg/kg/day,does not
same,effect on parasitemia on the first day and following days,"artesunate alone, at the doses tested, ip (FIG. 1)",does not reduce the parasitemia
same,ED50,"dose giving 50% decrease in parasitaemia, ip once a day D1-D4, determined at D5, compound alone",>2.5 mg/kg/day
